Measured values taken from US20240165243A1, “EGFR DEGRADERS AND METHODS OF USE” (BeiGene Switzerland GmbH, priority 2021, published 2024).

System: EGFR (Del19/T790M/C797S)
Experiment: Cell degradation HTRF assay, H1975-clone #28 cells
Format: cell-based
Conditions: H1975-clone #28 (Del19/T790M/C797S) cells, 16 h treatment; for DC50: HTRF, read-out: H1975-clone#28 DTC DC50; for H1975-clone#28 DTC Dmax (%): maximum percentage of degradation
Method: Cell Degradation of Example 124-189
H1975-#28 and H1975-#25 cells are treated with compounds diluted in 0.2% DMSO cell culture medium on day 2, incubate for 16 h, 37° C., 5% CO2. the final concentration of compounds in all assay is start with 10 uM, 5-fold dilution, total 8 doses were included.
After 16 h treatment, add HTRF lysis buffer to each well; seal the plate and incubate 1 hour at room temperature on a plate shaker; Once the cells are lysed, 16 μL of cell lysate are transferred to a PE 384-well HTRF detection plate; 4 μL of pre-mixed HTRF antibodies are added to each well; Cover the plate with a plate sealer, spin 1000 rpm for 1 min, Incubate overnight at room temperature; Read on BMG PheraStar with HTRF protocol (337 nm-665 nm-620 nm).
The inhibition (degradation) percentage of the compound was calculated by the following equation:
Inhibition percentage of Compound=100−100×(Signal−low control)/(High control−low control), wherein signal=each test compound group.
High control=Cell group with added DMSO and without compound, indicating microplate readings without EGFR degradation;
Dmax is the maximum percentage of inhibition (degradation).
The IC50 (DC50) value of a compound can be obtained by fitting the following equation
Y=Bottom+(TOP−Bottom)/(1+((IC50/X)^hillslope))
Wherein, X and Y are known values, and IC50, Hillslope, Top and Bottom are the parameters obtained by fitting with software. Y is the inhibition percentage (calculated from the equation), X is the concentration of the compound; IC50 is the concentration of the compound when the 50% inhibition is reached. The smaller the IC50 value is, the stronger the inhibitory ability of the compound is. Vice versa, the higher the IC50 value is, the weaker the ability the inhibitory ability of the compound is; Hillslope represents the slope of the fitted curve, generally around 1*; Bottom represents the minimum value of the curve obtained by data fitting, which is generally 0%±20%; Top represents the maximum value of the curve obtained by data fitting, which is generally 100%±20%. The experimental data were fitted by calculating and analyzing with Dotmatics data analysis software. When Dmax<50%, DC50 will be automatically assigned as larger than […].

For CCc1cc(Nc2ncc(Br)c(Nc3cnc4cc(F)ccc4c3P(C)(C)=O)n2)c(OC)cc1N1CCC(N2CCN(CCc3ccc4c(c3)oc(=O)n4C3CCC(=O)NC3=O)CC2)CC1 (stereo not shown) [Example 153, 3-(6-(2-(4-(1-(4-((5-bromo-4-((4-(dimethylphosphoryl)-7-fluoroquinolin-3-yl)amino)pyrimidin-2-yl)amino)-2-ethyl-5-methoxyphenyl)piperidin-4-yl)piperazin-1-yl)ethyl)-2-oxobenzo[d]oxazol-3(2H)-yl)piperidine-2,6-dione], the DC50 was 0.8 nM and the “H1975-clone#28 DTC Dmax (%)” value was 77%.

In the case of CCc1cc(Nc2ncc(Br)c(Nc3cnc4ccccc4c3P(C)(C)=O)n2)c(OC)cc1N1CCC(N2CCN(CCc3cccc4c3n(C3CC3)c(=O)n4C3CCC(=O)NC3=O)CC2)CC1 (stereo not shown) [Example 155, 3-(4-(2-(4-(1-(4-((5-bromo-4-((4-(dimethylphosphoryl)quinolin-3-yl)amino)pyrimidin-2-yl)amino)-2-ethyl-5-methoxyphenyl)piperidin-4-yl)piperazin-1-yl)ethyl)-3-cyclopropyl-2-oxo-2,3-dihydro-1H-benzo[d]imidazol-1-yl)piperidine-2,6-dione], the DC50 is reported as 0.7 nM and the “H1975-clone#28 DTC Dmax (%)” value is reported as 85%.

In the case of CCc1cc(Nc2ncc(Br)c(Nc3cnc4ccccc4c3P(C)(C)=O)n2)c(OC)cc1N1CCC(N2CCN(CCc3c(F)ccc4c3n(C)c(=O)n4C3CCC(=O)NC3=O)CC2)CC1 (stereo not shown) [Example 159, 3-(4-(2-(4-(1-(4-((5-bromo-4-((4-(dimethylphosphoryl)quinolin-3-yl)amino)pyrimidin-2-yl)amino)-2-ethyl-5-methoxyphenyl)piperidin-4-yl)piperazin-1-yl)ethyl)-5-fluoro-3-methyl-2-oxo-2,3-dihydro-1H-benzo[d]imidazol-1-yl)piperidine-2,6-dione], the DC50 is reported as 1.4 nM and the “H1975-clone#28 DTC Dmax (%)” value is reported as 85%.

CCc1cc(Nc2ncc(Br)c(Nc3cnc4ccccc4c3P(C)(C)=O)n2)c(OC)cc1N1CCC(N2CCN(CCc3cccc4c3n(CC)c(=O)n4C3CCC(=O)NC3=O)CC2)CC1 (stereo not shown) [Example 163, 3-(4-(2-(4-(1-(4-((5-bromo-4-((4-(dimethylphosphoryl)quinolin-3-yl)amino)pyrimidin-2-yl)amino)-2-ethyl-5-methoxyphenyl)piperidin-4-yl)piperazin-1-yl)ethyl)-3-ethyl-2-oxo-2,3-dihydro-1H-benzo[d]imidazol-1-yl)piperidine-2,6-dione] was tested, and the DC50 was 1.1 nM and the “H1975-clone#28 DTC Dmax (%)” value was 86%.

In the case of CCc1cc(Nc2ncc(Br)c(Nc3cnc4ccccc4c3P(C)(C)=O)n2)c(OC)cc1N1CCC(N2CCN(CCc3cccc4c3C(C)(C)C(=O)N4C3CCC(=O)NC3=O)CC2)CC1 (stereo not shown) [Example 164, 3-(4-(2-(4-(1-(4-((5-bromo-4-((4-(dimethylphosphoryl)quinolin-3-yl)amino)pyrimidin-2-yl)amino)-2-ethyl-5-methoxyphenyl)piperidin-4-yl)piperazin-1-yl)ethyl)-3,3-dimethyl-2-oxoindolin-1-yl)piperidine-2,6-dione], the DC50 is reported as 2.1 nM and the “H1975-clone#28 DTC Dmax (%)” value is reported as 81%.

CCc1cc(Nc2ncc(Br)c(Nc3cnc4c(F)cccc4c3P(C)(C)=O)n2)c(OC)cc1N1CCC(N2CCN(CCC3CCN(c4cc(F)c(C5CCC(=O)NC5=O)c(F)c4)CC3)CC2)CC1 (stereo not shown) [Example 165, 3-(4-(4-(2-(4-(1-(4-((5-bromo-4-((4-(dimethylphosphoryl)-8-fluoroquinolin-3-yl)amino)pyrimidin-2-yl)amino)-2-ethyl-5-methoxyphenyl)piperidin-4-yl)piperazin-1-yl)ethyl)piperidin-1-yl)-2,6-difluorophenyl)piperidine-2,6-dione] was tested, and the DC50 was 4.2 nM and the “H1975-clone#28 DTC Dmax (%)” value was 84%.

For CCc1cc(Nc2ncc(Br)c(Nc3cnc4cc(F)ccc4c3P(C)(C)=O)n2)c(OC)cc1N1CCC(N2CCN(CCc3cccc4c3n(C)c(=O)n4C3CCC(=O)NC3=O)CC2)CC1 (stereo not shown) [Example 167, 3-(4-(2-(4-(1-(4-((5-bromo-4-((4-(dimethylphosphoryl)-7-fluoroquinolin-3-yl)amino)pyrimidin-2-yl)amino)-2-ethyl-5-methoxyphenyl)piperidin-4-yl)piperazin-1-yl)ethyl)-3-methyl-2-oxo-2,3-dihydro-1H-benzo[d]imidazol-1-yl)piperidine-2,6-dione], the DC50 was 0.8 nM and the “H1975-clone#28 DTC Dmax (%)” value was 74%.

CCc1cc(Nc2ncc(Br)c(Nc3cnc4ccccc4c3P(C)(C)=O)n2)c(OC)cc1N1CCC(N2CCN(C(=O)[C@H]3CCN(c4ccc5c(c4)C(C)(C)C(=O)N5C4CCC(=O)NC4=O)C3)CC2)CC1 (stereo partly drawn) [Example 168, 3-(5-((S)-3-(4-(1-(4-((5-bromo-4-((4-(dimethylphosphoryl)quinolin-3-yl)amino)pyrimidin-2-yl)amino)-2-ethyl-5-methoxyphenyl)piperidin-4-yl)piperazine-1-carbonyl)pyrrolidin-1-yl)-3,3-dimethyl-2-oxoindolin-1-yl)piperidine-2,6-dione] was tested, and the DC50 was 2 nM and the “H1975-clone#28 DTC Dmax (%)” value was 47%.

CCc1cc(Nc2ncc(Br)c(Nc3cnc4ccccc4c3P(C)(C)=O)n2)c(OC)cc1N1CCC(N2CCN(C(=O)C3CN(c4cccc5c4C(C)(C)C(=O)N5C4CCC(=O)NC4=O)C3)CC2)CC1 (stereo not shown) [Example 169, 3-(4-(3-(4-(1-(4-((5-bromo-4-((4-(dimethylphosphoryl)quinolin-3-yl)amino)pyrimidin-2-yl)amino)-2-ethyl-5-methoxyphenyl)piperidin-4-yl)piperazine-1-carbonyl)azetidin-1-yl)-3,3-dimethyl-2-oxoindolin-1-yl)piperidine-2,6-dione] was tested, and the DC50 was 4.6 nM and the “H1975-clone#28 DTC Dmax (%)” value was 65%.

With CCc1cc(Nc2ncc(Br)c(Nc3cnc4ccc(F)cc4c3P(C)(C)=O)n2)c(OC)cc1N1CCC(N2CCN(CCc3cccc4c3n(C)c(=O)n4C3CCC(=O)NC3=O)CC2)CC1 (stereo not shown) [Example 170, 3-(4-(2-(4-(1-(4-((5-bromo-4-((4-(dimethylphosphoryl)-6-fluoroquinolin-3-yl)amino)pyrimidin-2-yl)amino)-2-ethyl-5-methoxyphenyl)piperidin-4-yl)piperazin-1-yl)ethyl)-3-methyl-2-oxo-2,3-dihydro-1H-benzo[d]imidazol-1-yl)piperidine-2,6-dione] the DC50 was 2.1 nM and the “H1975-clone#28 DTC Dmax (%)” value was 82%.

With CCc1cc(Nc2ncc(Br)c(Nc3cnc4ccc(C(F)(F)F)cc4c3P(C)(C)=O)n2)c(OC)cc1N1CCC(N2CCN(CCc3cc(F)c(C4CCC(=O)NC4=O)c(F)c3)CC2)CC1 (stereo not shown) [Example 171, 3-(4-(2-(4-(1-(4-((5-bromo-4-((4-(dimethylphosphoryl)-6-(trifluoromethyl)quinolin-3-yl)amino)pyrimidin-2-yl)amino)-2-ethyl-5-methoxyphenyl)piperidin-4-yl)piperazin-1-yl)ethyl)-2,6-difluorophenyl)piperidine-2,6-dione] the DC50 was 4.3 nM and the “H1975-clone#28 DTC Dmax (%)” value was 79%.

With CCc1cc(Nc2ncc(Br)c(Nc3cnc4cc(F)ccc4c3P(C)(C)=O)n2)c(OC)cc1N1CCC(N2CCN(CCc3cc(F)c(C4CCC(=O)NC4=O)c(F)c3)CC2)CC1 (stereo not shown) [Example 172, 3-(4-(2-(4-(1-(4-((5-bromo-4-((4-(dimethylphosphoryl)-7-fluoroquinolin-3-yl)amino)pyrimidin-2-yl)amino)-2-ethyl-5-methoxyphenyl)piperidin-4-yl)piperazin-1-yl)ethyl)-2,6-difluorophenyl)piperidine-2,6-dione] the DC50 was 1.4 nM and the “H1975-clone#28 DTC Dmax (%)” value was 81%.

CCc1cc(Nc2ncc(Br)c(Nc3cnc4c(F)c(F)ccc4c3P(C)(C)=O)n2)c(OC)cc1N1CCC(N2CCN(CCc3cc(F)c(C4CCC(=O)NC4=O)c(F)c3)CC2)CC1 (stereo not shown) [Example 173, 3-(4-(2-(4-(1-(4-((5-bromo-4-((4-(dimethylphosphoryl)-7,8-difluoroquinolin-3-yl)amino)pyrimidin-2-yl)amino)-2-ethyl-5-methoxyphenyl)piperidin-4-yl)piperazin-1-yl)ethyl)-2,6-difluorophenyl)piperidine-2,6-dione] was tested, and the DC50 was 2.7 nM and the “H1975-clone#28 DTC Dmax (%)” value was 82%.

In the case of CCc1cc(Nc2ncc(Br)c(Nc3cnc4ccc(F)cc4c3P(C)(C)=O)n2)c(OC)cc1N1CCC(N2CCN(CCc3cc(F)c(C4CCC(=O)NC4=O)c(F)c3)CC2)CC1 (stereo not shown) [Example 174, 3-(4-(2-(4-(1-(4-((5-bromo-4-((4-(dimethylphosphoryl)-6-fluoroquinolin-3-yl)amino)pyrimidin-2-yl)amino)-2-ethyl-5-methoxyphenyl)piperidin-4-yl)piperazin-1-yl)ethyl)-2,6-difluorophenyl)piperidine-2,6-dione], the DC50 is reported as 1.8 nM and the “H1975-clone#28 DTC Dmax (%)” value is reported as 80%.
